Counter-ions that a name gives are not always drawn.
Columns and labels:
[1] = test system: Spontaneously hypertensive rats of the Okamoto-Aoki strain; test: Blood pressure lowering after oral administration in conscious spontaneously hypertensive rats (tail cuff, systolic pressure); assay type: in vivo; details: for The decrease of the blood pressure (mmHg) induced by the dose of 0.5 µmol/rat p.o. 1h: 1 hour after administration; for The decrease of the blood pressure (mmHg) induced by the dose of 0.5 µmol/rat p.o. 2h: 2 hours after administration; for The decrease of the blood pressure (mmHg) induced by the dose of 0.5 µmol/rat p.o. 5h: 5 hours after administration
male Wistar rats = test: Blood pressure lowering after intravenous administration in urethane-anaesthetised rats (mean arterial pressure, femoral artery); assay type: in vivo; details: maximal decrease of the blood pressure
Protocol: The effect of the compounds when administered intravenously was studied with male Wistar rats, 240-290 g,which were anaesthetised with urethane (1.5 g/kg intraperitoneally). A heating pad which is controlled by a thermostate connected to the colonic thermistor probe was placed underneath the rats to keep the body temperature at' 38°C. The trachea was cannulated with a polyethylene tube and the rats were allowed to breathe spontaneously. A femoral vein was cannulated for intravenous injections of drugs. […] The pressure . signals were amplified with a pressure conditioner (HP […]). The mean arterial pressure was recorded on paper with a . chart recorder. […] A dose of 0.1 μmol/kg was injected intravenously and the maximal decrease of the blood pressure (mmHg) was measured.

Row | SMILES | The decrease of the blood pressure (mmHg) induced by the dose of 0.5 µmol/rat p.o. 1h [1] | The decrease of the blood pressure (mmHg) induced by the dose of 0.5 µmol/rat p.o. 2h [1] | The decrease of the blood pressure (mmHg) induced by the dose of 0.5 µmol/rat p.o. 5h [1] | The decrease of the blood pressure (mmHg) induced by the dose of 0.1 µmol/kg i.v. (male Wistar rats)
1 | CCN(CC)C(=O)C1CCN(c2nc(N)c3cc(OC)c(OC)cc3n2)CC1 [A(R = diethylamino), 2-(4-diethylaminocarbonylpiperidino) 4- .amino-6,7-dimethoxyquinazoline, reference compound] | 24 mmHg | 16 mmHg | 10 mmHg | 37 mmHg
2 | COc1cc2nc(N3CCC(C(=O)N4CCCCCC4)CC3)nc(N)c2cc1OC [1-azacycloheptyl, 2-(4-(azacyclohept-1-yl-carbonyl)piperi-dino)-4-amino-6,7-dimethoxyquinazoline hydrochloride] | 23 mmHg | 27 mmHg | 25 mmHg | 47 mmHg
3 | COc1cc2nc(N3CCC(C(=O)N4CCOCC4)CC3)nc(N)c2cc1OC [B(R = morpholino), 2-(4-morpholinocarbonylpiperidino)-4-amino-6,7-dimethoxyquinazoline, reference compound] | 7 mmHg | 5 mmHg | -2 mmHg | 30 mmHg
4 | COc1cc2nc(N3CCC(C(=O)N4CCCCCCC4)CC3)nc(N)c2cc1OC [1-azacyclooctyl, 2-(4-(azacyclooct-1-yl-carbonyl)piperidino-4-amino-6,7-dimethoxyquinazoline hydrochloride] | 18 mmHg | 23 mmHg | 29 mmHg | 23 mmHg
5 | COc1cc2nc(N3CCC(C(=O)N4CCCCC4)CC3)nc(N)c2cc1OC [piperidino, 2-(4-piperidinocarbonylpiperidino)-4-amino-6,7-dimethoxyquinazoline] | 25 mmHg | 22 mmHg | 17 mmHg | 32 mmHg
6 | COc1cc2nc(N3CCC(C(=O)OCC(C)(C)C)CC3)nc(N)c2cc1OC.Cl [neopentyloxy, 2-(4-neopentyloxycarbonylpiperidino)-4-amino-6,7-dimethoxyquinazoline hydrochloride] | 22 mmHg | 21 mmHg | 21 mmHg | 44 mmHg
7 | COc1cc2nc(N3CCC(C(=O)NC(C)(C)C)CC3)nc(N)c2cc1OC.Cl [t-butylamino, 2-(4-tert-butylcarbamoylpiperidino)-4-amino-6,7-dimethoxyquinazoline hydrochloride] | 15 mmHg | 25 mmHg | 28 mmHg | 28 mmHg
8 | COc1cc2nc(N3CCC(C(N)=O)CC3)nc(N)c2cc1OC.Cl [amino, 2-(4-carbamoylpiperidino)-4-amino-6,7-dimethoxyquinazoline hydrochloride] | 20 mmHg | 22 mmHg | 20 mmHg | 27 mmHg
9 | COc1cc2nc(N3CCN(C(=O)c4ccco4)CC3)nc(N)c2cc1OC [prazosin, 2-(4-(2-furoyl)-piperazin-l-yl)-4-amino-6,7-dimethoxyquinazoline, reference compound] | 26 mmHg | 31 mmHg | 24 mmHg | 36 mmHg
10 | COc1cc2nc(N3CCC(C(=O)N4CCCCC4C)CC3)nc(N)c2cc1OC.Cl (stereo not shown) [2-methylpiperidino, 2-(4-(2-methylpiperidino)carbonylpiperidino)-4-amino-6,7-dimethoxyquinazoline hydrochloride] | 15 mmHg | 25 mmHg | 28 mmHg | 31 mmHg
